{"source": "patent US20230115416A1", "about": "“COMPOSITIONS AND METHODS FOR PROMOTING CELLULAR METABOLIC FITNESS” (priority 2021, published 2023)", "key": {"[1]": {"biological_target": "NMDAR glycine site (Homo sapiens, UniProt Q05586)", "experiment": "Modulation of the NMDAR glycine site in embodiments", "settings": "in embodiments of the invention"}, "[2]": {"system": "NMDAR", "settings": "by blocking adenosine receptor; cited from earlier work"}, "[3]": {"system": "NMDAR glutamate site", "settings": "laboratory studies; cited from earlier work"}, "[4]": {"experiment": "Tinnitus side effect of CMF modulator treatment", "format": "in vivo, human"}, "[5]": {"system": "hair regrowth", "settings": "topical petroleum jelly composition, up to 10% by weight, shaved skin of mice; cited from earlier work"}}, "data": [{"smiles": "NCCS(=O)(=O)O", "note": "[Taurine]", "values": [{"measurement": "modulation of the NMDAR glycine site", "setting": "[1]", "value": "stronger negative modulation effects"}]}, {"smiles": "Cn1c(=O)c2c(ncn2C)n(C)c1=O", "note": "[Caffeine]", "values": [{"measurement": "NMDAR stimulation", "setting": "[2]", "value": "stimulates NMDAR at low micromolar concentrations"}]}, {"smiles": "O=C1CC[C@@H](C(=O)O)N1", "note": "[pyroglutamic acid]", "values": [{"measurement": "modulation of the NMDAR glutamate site", "setting": "[3]", "value": "negative modulator"}, {"measurement": "tinnitus", "setting": "[4]; dosed orally", "value": "issues related to tinnitus have been observed"}]}, {"smiles": "N[C@@H](CCC(=O)O)C(=O)O", "note": "[glutamic acid]", "values": [{"measurement": "rate of hair regrowth", "setting": "[5]", "value": "increases the rate of hair regrowth"}, {"measurement": "tinnitus", "setting": "[4]; dosed sublingually or topically", "value": "issues related to tinnitus have been observed"}]}]}
